Results: ChEMBL document CHEMBL1127849, “Benzisoxazole- and benzisothiazole-3-carboxamides as potential atypical antipsychotic agents” (J Med Chem, 1994)

Legend:
[1] = target: T1, Adrenergic receptor alpha-1 (Rattus norvegicus, UniProt P15823+P23944+P43140); experiment: Its affinity towards alpha-1 receptor using [3H]WB-4101 as radioligand in whole brain minus cerebellum; type: tissue-based
T1 sequence (P15823 whole entry): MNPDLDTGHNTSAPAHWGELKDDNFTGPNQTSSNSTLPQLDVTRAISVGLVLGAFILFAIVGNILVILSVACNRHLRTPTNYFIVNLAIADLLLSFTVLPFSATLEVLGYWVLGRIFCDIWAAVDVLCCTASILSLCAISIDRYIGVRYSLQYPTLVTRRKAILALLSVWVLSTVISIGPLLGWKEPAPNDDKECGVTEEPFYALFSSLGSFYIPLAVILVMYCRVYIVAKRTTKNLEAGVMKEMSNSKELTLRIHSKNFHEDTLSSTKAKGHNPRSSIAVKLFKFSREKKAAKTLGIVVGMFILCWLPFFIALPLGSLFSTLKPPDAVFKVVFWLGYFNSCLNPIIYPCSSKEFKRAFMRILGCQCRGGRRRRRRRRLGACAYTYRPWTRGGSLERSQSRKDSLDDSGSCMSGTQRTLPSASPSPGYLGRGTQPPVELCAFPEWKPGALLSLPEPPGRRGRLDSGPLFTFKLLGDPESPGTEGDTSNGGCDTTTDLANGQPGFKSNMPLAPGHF
T1 sequence (P23944 whole entry): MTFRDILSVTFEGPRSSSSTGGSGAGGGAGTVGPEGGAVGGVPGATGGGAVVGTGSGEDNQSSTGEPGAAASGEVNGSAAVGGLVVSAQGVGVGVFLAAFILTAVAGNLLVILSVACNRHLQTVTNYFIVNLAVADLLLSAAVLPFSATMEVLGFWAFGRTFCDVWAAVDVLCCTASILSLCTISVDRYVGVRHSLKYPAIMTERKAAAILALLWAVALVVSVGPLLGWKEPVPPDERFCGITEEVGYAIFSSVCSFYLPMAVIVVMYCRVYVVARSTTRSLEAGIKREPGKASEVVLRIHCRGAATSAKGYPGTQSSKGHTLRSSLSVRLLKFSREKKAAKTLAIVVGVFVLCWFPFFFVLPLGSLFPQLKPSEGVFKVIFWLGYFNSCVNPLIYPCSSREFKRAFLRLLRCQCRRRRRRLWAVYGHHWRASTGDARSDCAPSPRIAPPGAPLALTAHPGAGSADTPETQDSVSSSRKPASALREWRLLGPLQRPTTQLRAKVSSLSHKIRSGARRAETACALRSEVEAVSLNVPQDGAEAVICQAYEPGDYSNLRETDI
T1 sequence (P43140 whole entry): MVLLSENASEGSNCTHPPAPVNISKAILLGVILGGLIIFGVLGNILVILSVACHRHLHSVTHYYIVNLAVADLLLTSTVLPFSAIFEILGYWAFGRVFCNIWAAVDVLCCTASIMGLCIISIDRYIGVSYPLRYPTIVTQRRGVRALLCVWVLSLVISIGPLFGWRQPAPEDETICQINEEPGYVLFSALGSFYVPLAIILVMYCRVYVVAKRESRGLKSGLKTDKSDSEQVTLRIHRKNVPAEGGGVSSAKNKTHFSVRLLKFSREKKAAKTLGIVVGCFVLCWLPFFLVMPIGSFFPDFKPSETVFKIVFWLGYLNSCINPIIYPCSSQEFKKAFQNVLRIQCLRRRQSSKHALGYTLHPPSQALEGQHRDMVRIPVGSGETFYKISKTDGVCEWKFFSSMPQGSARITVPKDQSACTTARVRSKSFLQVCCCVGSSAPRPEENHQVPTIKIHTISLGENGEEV

[2] = target: T2, 5-hydroxytryptamine receptor 1A (Rattus norvegicus, UniProt P19327); experiment: In vitro affinity towards 5-hydroxytryptamine 1A receptor using [3H]8-OH-DPAT as radioligand in hippocampus; type: tissue-based
T2 sequence (P19327 whole entry): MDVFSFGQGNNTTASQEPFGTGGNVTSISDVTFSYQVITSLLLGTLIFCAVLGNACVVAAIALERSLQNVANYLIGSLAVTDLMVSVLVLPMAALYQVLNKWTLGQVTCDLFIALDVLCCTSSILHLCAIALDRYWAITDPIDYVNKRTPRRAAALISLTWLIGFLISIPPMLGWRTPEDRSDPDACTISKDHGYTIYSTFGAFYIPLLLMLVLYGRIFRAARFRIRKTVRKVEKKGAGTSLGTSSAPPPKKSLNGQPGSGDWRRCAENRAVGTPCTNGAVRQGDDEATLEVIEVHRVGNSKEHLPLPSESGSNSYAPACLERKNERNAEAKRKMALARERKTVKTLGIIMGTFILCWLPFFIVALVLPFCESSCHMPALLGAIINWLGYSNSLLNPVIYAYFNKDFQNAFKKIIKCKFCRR

Mus musculus = experiment: In vivo effective dose for inhibition of apomorphine-induced climbing in mice after intraperitoneal administration at a dose 20 mg/kg; type: functional; conditions: ip
[3] = target: 5-hydroxytryptamine receptor 2A (Rattus norvegicus, UniProt P14842); experiment: In vitro affinity towards 5-hydroxytryptamine 2A receptor using [3H]spiroperidol as radioligand in cortex
Chain of 5-hydroxytryptamine receptor 2A (P14842 whole entry): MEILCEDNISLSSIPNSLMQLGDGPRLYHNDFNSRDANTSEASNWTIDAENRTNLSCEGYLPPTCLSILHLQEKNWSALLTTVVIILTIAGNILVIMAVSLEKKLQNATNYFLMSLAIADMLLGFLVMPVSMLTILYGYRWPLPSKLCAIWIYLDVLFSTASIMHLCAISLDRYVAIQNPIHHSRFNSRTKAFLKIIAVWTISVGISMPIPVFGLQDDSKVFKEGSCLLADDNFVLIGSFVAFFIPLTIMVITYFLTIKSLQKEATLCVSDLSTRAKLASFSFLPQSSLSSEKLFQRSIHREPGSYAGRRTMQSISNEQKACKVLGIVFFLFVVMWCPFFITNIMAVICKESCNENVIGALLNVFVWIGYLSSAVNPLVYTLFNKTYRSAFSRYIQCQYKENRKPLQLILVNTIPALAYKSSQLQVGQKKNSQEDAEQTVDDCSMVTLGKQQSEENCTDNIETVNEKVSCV

Rattus norvegicus [4] = experiment: Compound was evaluated in vivo for its antipsychotic activity for inhibition of apomorphine-induced stereotypy in rat; type: functional
Rattus norvegicus [5] = experiment: Compound was evaluated in vivo for its antipsychotic activity for inhibition of apomorphine-induced stereotypy in rat after intraperitoneal administration of a dose of 40 mg/kg; type: functional; conditions: ip
Rattus norvegicus [6] = experiment: Compound was evaluated in vivo for its antipsychotic activity for inhibition of apomorphine-induced stereotypy in rat after intraperitoneal administration of a dose of 10 mg/kg; type: functional; conditions: ip
Rattus norvegicus [7] = experiment: Compound was evaluated in vivo for its antipsychotic activity for inhibition of apomorphine-induced stereotypy in rat after intraperitoneal administration of a dose of 40 mg/kg value represented as percent inhibition; type: functional; conditions: ip
Rattus norvegicus [8] = experiment: Compound was evaluated in vivo for its antipsychotic activity for inhibition of apomorphine-induced stereotypy in rat after intraperitoneal administration of a dose of 13 mg/kg; type: functional; conditions: ip

Row | SMILES | IC50 [1] | IC50 [2] | ED50 (Mus musculus) | IC50 [3] | ED50 (Rattus norvegicus [4]) | inhibition in vivo at 40 mg/kg (Rattus norvegicus [5]) | inhibition in vivo at 10 mg/kg (Rattus norvegicus [6]) | inhibition in vivo at 40 mg/kg (Rattus norvegicus [7]) | inhibition in vivo at 13 mg/kg (Rattus norvegicus [8])
1 | CN1CCN(CCNC(=O)c2nsc3ccccc23)CC1 | > 10 µM | > 10000 nM | > 20 mg/kg | > 10000 nM | – | – | – | – | –
2 | O=C(NCCN1CCC(c2noc3cc(Cl)ccc23)CC1)c1nsc2ccccc12 | 0.239 µM | 3450 nM | > 20 mg/kg | 215 nM | – | – | – | – | –
3 | O=C(NCCN1CCN(Cc2ccccc2)CC1)c1nsc2ccccc12 | 2.57 µM | 1880 nM | > 20 mg/kg | – | – | – | – | – | –
4 | O=C(NCCN1CCC(C(=O)c2ccc(F)cc2)CC1)c1nsc2ccccc12 | 0.0157 µM | 920 nM | 3.64 mg/kg | 17 nM | 25.7 mg/kg | – | – | – | –
5 | COc1ccccc1N1CCN(CCCCN(C)C(=O)c2nsc3ccccc23)CC1 | 0.0033 µM | 4 nM | 9.61 mg/kg | – | – | 100% | – | – | –
6 | CN(CCCCN1CCC(c2noc3cc(F)ccc23)CC1)C(=O)c1nsc2ccccc12 | 0.174 µM | 160 nM | – | 13 nM | – | – | 67% | – | –
7 | COc1ccccc1N1CCN(CCCCNC(=O)c2nsc3ccccc23)CC1 | 0.0064 µM | 2.3 nM | 7.24 mg/kg | 724 nM | – | – | – | 83% | –
8 | COc1ccccc1N1CCN(CCNC(=O)c2nsc3ccccc23)CC1 | 0.0041 µM | 3.9 nM | – | 550 nM | 51.8 mg/kg | – | – | – | –
9 | O=C(NCCN1CCN(c2cccc(Cl)c2)CC1)c1nsc2ccccc12 | 0.0815 µM | 51.6 nM | > 20 mg/kg | 726 nM | – | – | – | – | –
10 | O=C(NCCN1CCC(n2c(O)nc3ccccc32)CC1)c1nsc2ccccc12 | 0.0398 µM | – | > 20 mg/kg | 641 nM | – | – | – | – | –
11 | O=C(NCCN1CCN(c2nsc3ccccc23)CC1)c1nsc2ccccc12 | 0.019 µM | 98 nM | > 20 mg/kg | 475 nM | – | – | – | – | –
12 | CN(CCCCN1CCC(C(=O)c2ccc(F)cc2)CC1)C(=O)c1nsc2ccccc12 | 0.0032 µM | 339 nM | 8.2 mg/kg | 30.2 nM | – | 60% | – | – | –
13 | O=C(NCCN1CCN(c2csc3cc(F)ccc23)CC1)c1noc2ccccc12 | > 10 µM | 1040 nM | – | 309 nM | – | 17% | – | – | –
14 | CN(CCCN1CCC(C(=O)c2ccc(F)cc2)CC1)C(=O)c1noc2ccccc12 | 0.043 µM | 6650 nM | > 20 mg/kg | 123 nM | – | – | – | – | –
15 | CC(C)N(CCN1CCC(c2noc3cc(F)ccc23)CC1)C(=O)c1noc2ccccc12 | 0.0055 µM | – | 1.3 mg/kg | 29.7 nM | – | – | – | – | –
16 | COc1ccccc1N1CCN(CCNC(=O)c2noc3ccccc23)CC1 | 0.0021 µM | 21 nM | > 20 mg/kg | 391 nM | – | – | – | – | –
17 | COc1ccccc1N1CCN(CCCNC(=O)c2nsc3ccccc23)CC1 | 0.0183 µM | 84.7 nM | 13 mg/kg | 3110 nM | – | 17% | – | – | –
18 | CN(CCCN1CCC(C(=O)c2ccc(F)cc2)CC1)C(=O)c1nsc2ccccc12 | 0.00611 µM | 4670 nM | 7.7 mg/kg | 68 nM | – | – | – | – | –
19 | COc1ccccc1N1CCN(CCCN(C)C(=O)c2nsc3ccccc23)CC1 | 0.0107 µM | 149 nM | > 20 mg/kg | 1650 nM | – | – | – | – | –
20 | CN(CCN1CCC(c2noc3cc(F)ccc23)CC1)C(=O)c1noc2ccccc12 | 0.104 µM | 440 nM | 1.3 mg/kg | 17.6 nM | – | – | – | – | 33%
21 | CN(CCCCN1CCN(c2csc3cc(F)ccc23)CC1)C(=O)c1noc2ccccc12 | 0.0032 µM | 128 nM | – | 188 nM | 52 mg/kg | – | – | – | –
22 | CN(CCCCN1CCN(c2csc3cc(F)ccc23)CC1)C(=O)c1nsc2ccccc12 | 0.0063 µM | 366 nM | – | 232 nM | 33 mg/kg | – | – | – | –
23 | O=C(NCCCN1CCC(c2noc3cc(Cl)ccc23)CC1)c1nsc2ccccc12 | 0.0938 µM | 3720 nM | > 20 mg/kg | 115 nM | – | – | – | – | –
24 | CN(CCN1CCC(C(=O)c2ccc(F)cc2)CC1)C(=O)c1nsc2ccccc12 | 0.0753 µM | 2500 nM | 8 mg/kg | 51 nM | – | – | – | – | –
25 | CN(CCN1CCC(C(=O)c2ccc(F)cc2)CC1)C(=O)c1noc2ccccc12 | 0.1082 µM | 1790 nM | 13.4 mg/kg | 27 nM | – | – | – | – | –
26 | CC(C)N(CCCN1CCC(C(=O)c2ccc(F)cc2)CC1)C(=O)c1noc2ccccc12 | 0.124 µM | 2300 nM | 20.2 mg/kg | 290 nM | – | – | – | – | –
27 | CN1CCN(C2=Nc3cc(Cl)ccc3Nc3ccccc32)CC1 [CLOZAPINE] | – | – | – | – | – | 33% | – | – | –
28 | Cc1nc2n(c(=O)c1CCN1CCC(c3noc4cc(F)ccc34)CC1)CCCC2 [RISPERIDONE] | – | – | 0.062 mg/kg | – | 3.2 mg/kg | – | – | – | –
